{"source": "patent US20130164379A1", "about": "“NANOPARTICLE MICELLE COATED COMPOSITIONS” (priority 2011, published 2013)", "key": {"[1]": {"tested_on": "HCT-116 cells", "assay": "Detection of apoptosis by annexin V-PE/7AAD flow cytometry", "format": "cell-based, human", "settings": "HCT-116, 0.75 μM thiostrepton, 10 nM bortezomib, 24 hr; single drugs over the control", "procedure": "The AnnexinV-PE staining kit (559763, BD Bio. Sci.) was used for the detection of apoptotic bodies following the vendor's protocol. This kit uses a dual-staining protocol in which the cells show fluorescence of Annexin V (apoptotic cells) and fluorescence of 7AAD (necrotic cells or late apoptotic cells). Briefly the tumor cells were grown at a density of 50% confluence in 100-mm culture dishes and were treated with varying concentrations of the drugs for 24 hr. The cells were trypsinized, washed with PBS, and were processed for labeling with annexinV-7AAD. The labeled cells were analyzed by flow cytometry."}, "[2]": {"assay": "Solubility observation of thiostrepton in cell media", "format": "physicochemical", "settings": "DMSO-dissolved thiostrepton added to cell media"}, "[3]": {"target": "T1, purified proteasomes (Homo sapiens, UniProt P28072)", "T1 construct": "purchased Enzo", "assay": "Proteasome activity assay on purified proteasomes", "format": "biochemical", "settings": "bortezomib 5 nM, thiostrepton 20 μM", "procedure": "To assay proteasome inhibitor activities of proteasome inhibitors purified proteasomes, (0.5 μg, 1 μg/μL) were pre-incubated with inhibitors bortezomib (5 nM, 1 μL of 0.5 μM in DMSO) and/or thiostrepton (20 μM, 1 μL of 2 mM) in 10× assay buffer (10 μL) and H2O (88.5 μL) for 30 min at room temperature. Ac-YVAD-amc substrate (10 μL, 0.5 mM) was then added and the assay solution was incubated at […] for 2 hr, after which solutions were examined for fluorescence at excitation wavelength of 340 nm and emission wavelength of 505 nm. Values are represented as a % of the proteasome activity of non-inhibited proteasomes."}, "[4]": {"tested_on": "U2OS-C3 osteosarcoma cells", "assay": "Immunoblotting for caspase-3 cleavage, thiostrepton and bortezomib", "format": "cell-based, human", "settings": "U2OS-C3, sub-apoptotic concentrations, 24 hr", "procedure": "U2OS-C3 osteosarcoma, PA-1 ovarian, HCT116 colon and MiaPaca-2 pancreatic cancer cells were cultured in DMEM medium (Invitrogen). HCT-116 and MiaPaca-2 (shFOXM1) cells were cultured in DMEM medium (Invitrogen). MDA-MB231 (parental and shFOXM1) cells were grown in RPMI-1640 medium (Invitrogen). The media were supplemented with 10% fetal bovine serum (Atlanta Biologicals) and 1% penicillin-streptomycin (GIBCO) and the cells were kept at 37° C. in 5% CO2. Stable cell lines were generated by transduction of FOXM1 shRNA lentiviral particles (Sigma) followed by selection with puromycin (Sigma).\nActively dividing cells were seeded into a 100-mm plate at a density of 7.5×10^5 cells. […] Cells were lysed in IP buffer (20 mM HEPES, 1% Triton X-100, 150 mM NaCl, 1 mM EDTA, 1 mM EGTA, 100 mM NaF, 10 mM Na4P2O7, 1 mM sodium orthovanadate, 0.2 mM PMSF supplemented with protease inhibitor tablet and the protein concentration was determined using the Bio-Rad protein assay reagent. Fifty micrograms of the cell lysates were separated by electrophoresis on SDS-polyacrylamide mini gel and transferred to PVDF membrane Immunoblotting was performed with specific antibodies for cleaved caspase-3 (9664 Cell Signaling), FOXM1 (Dr. Costa) and β-actin (A5441, Sigma)."}, "[5]": {"tested_on": "DEN/PB hepatocellular carcinoma mouse model", "quoted_text": "The efficacy of nanoparticle micelle coated compositions containing thiostrepton in inhibiting tumor growth in DEN/PB hepatocellular carcinoma mouse model was evaluated.\nSpontaneous induction of HCC was achieved by intraperitonial injection of the carcinogen diethylnitrosamine (DEN) into 2-day-old neonatal BALB/C mice. Carcinogenesis was further induced by continuing the mice on phenobarbital (PB)-doped drinking water (1 mg/mL). […] As a treatment schedule, animals were treated once every other day (3 times a week) for 5 weeks before sacrifice, after which livers were removed and examined for visible tumor growth (FIG. 14b).\nAnimal livers were then fixed in 4% paraformaldehyde, embedded in paraffin wax and the right lobe of embedded livers were sectioned and stained with H&E for quantitative analysis of carcinoma formation."}, "[6]": {"tested_on": "MDA-MB-231-luc solid breast tumor xenografts", "assay": "MDA-MB-231-luc breast tumor xenograft, combination with bortezomib", "format": "in vivo, athymic mice", "settings": "thiostrepton 30 mg/kg i.v., bortezomib 0.5 mg/kg i.p., 5 injections", "procedure": "Animals were maintained and treated in accordance with the Animal Care and Use Committee of UIC. […] Treatment began once tumors reached sizes of 100 mm^3. After completion of the dosing schedule, animals were sacrificed and tumors were removed. Tumors were frozen in liquid N2 and kept at −80° C. until further analysis.\nTreatments were performed once every two days (3 times a week), during which tumor volumes were monitored with calipers (l×w×h=volume, mm^3). Animals were also weighed once a week. After 5 treatments, animals were sacrificed and tumors removed.\nFor bioluminescence imaging, animals were injected intraperitonially with 100 mg luciferin/kg 10 min before animals were anaesthetized under isoflurane. Animals were then imaged for tumor-associated bioluminescence (IVIS, Xenogen), where relative units of bioluminescence were quantified as flux (photon/sec) and analyzed with Living Image software."}}, "data": [{"smiles": "C=C(NC(=O)C(=C)NC(=O)c1csc(C2=N[C@@H]3c4csc(n4)[C@H]4NC(=O)c5csc(n5)[C@H]([C@](C)(O)[C@@H](C)O)NC(=O)[C@H]5CSC(=N5)/C(=C/C)NC(=O)[C@H]([C@@H](C)O)NC(=O)c5csc(n5)[C@]3(CC2)NC(=O)[C@H](C)NC(=O)C(=C)NC(=O)[C@H](C)NC(=O)[C@H]([C@@H](C)CC)N[C@@H]2C=Cc3c([C@H](C)O)cc(nc3[C@H]2O)C(=O)O[C@@H]4C)n1)C(N)=O", "note": "[thiostrepton]", "values": [{"measurement": "apoptosis (annexin V-PE/7AAD)", "setting": "[1]", "value": 6.1, "unit": "%"}, {"measurement": "solubility", "setting": "[2]", "value": "highly insoluble"}, {"measurement": "inhibition of purified proteasomes (YVAD-amc cleavage)", "setting": "[3]", "value": "only slightly hindered"}, {"measurement": "caspase-3 cleavage", "setting": "[4]", "value": "little or no caspase-3 cleavage"}]}, {"smiles": "CC(C)C[C@H](NC(=O)[C@H](Cc1ccccc1)NC(=O)c1cnccn1)B(O)O", "note": "[bortezomib]", "values": [{"measurement": "apoptosis (annexin V-PE/7AAD)", "setting": "[1]", "value": 6.9, "unit": "%"}, {"measurement": "inhibition of purified proteasomes (YVAD-amc cleavage)", "setting": "[3]", "value": "only slightly hindered"}, {"measurement": "body weights of treated animals compared to non-treated animals", "setting": "[5]; 3 times a week for 5 weeks", "value": "did not decrease significantly"}, {"measurement": "number of adenomas compared to livers from non-treated animals", "setting": "[5]; single treatments, H&E sections", "value": "suppression of the number of adenomas"}, {"measurement": "fewer number of visible liver tumors compared to non-treated control animals", "setting": "[5]; thiostrepton-micelle 30 mg/kg i.v., bortezomib 0.5 mg/kg i.p., 3 times a week for 5 weeks", "value": 50, "unit": "%"}, {"measurement": "tumor size / tumor growth compared to non-treated tumors", "setting": "[6]", "value": "slight reduction in tumor growth"}, {"measurement": "increase in tumor size compared to the first day of treatment", "setting": "[6]; 15 days", "value": 6, "unit": "fold"}, {"measurement": "caspase-3 cleavage", "setting": "[4]", "value": "little or no caspase-3 cleavage"}]}]}
